Results as given in US20050238679A1, “Taurine-containing preparations for improving the skin barrier” (Beiersdorf AG, priority 2004, published 2005).

Legend:
[1] = interfacial tension towards water as measure of polarity of lipids; type: physicochemical; conditions: lipid/oil component against water; regarded as polar if less than 30 mN/m
Excerpt: Oils and fats differ from one another in their polarity, which is difficult to define. It has already been proposed to adopt the interfacial tension towards water as a measure of the polarity index of an oil or of an oily phase. Then, the lower the interfacial tension between this oily phase and water, the greater the polarity of the oily phase in question. According to the invention, the interfacial tension is regarded as one possible measure of the polarity of a given oil component.
The interfacial tension is the force which acts on an imaginary line one meter in length in the interface between two phases. The physical unit for this interfacial tension is conventionally calculated from the force/length relationship and is usually expressed in mN/m (millinewtons divided by meters). It has a positive sign if it endeavours to reduce the interface. In the converse case, it has a negative sign. For the purposes of the present invention, lipids are regarded as polar if their interfacial tension towards water is less than 30 mN/m.
Nonpolar oils are, for example, those which are chosen from the group of branched and unbranched hydrocarbons and hydrocarbon waxes, in particular Vaseline (petrolatum), paraffin oil, squalane and squalene, polyolefins and hydrogenated polyisobutenes. Among the polyolefins, polydecenes are the preferred substances.

[2] = stability of taurine under customary storage conditions; type: physicochemical; conditions: various pH values (5<pH<7), customary storage conditions (+6° C., −10° C., rocking test)
Excerpt: On account of its solubility in water, it is used in various bases such as O/W creams, W/O creams, PIT emulsions, hydrous sticks, hydrodispersions etc. […] Dry skin has a reduced skin barrier. Taurine brings about an increase in the skin moisturization of cosmetic preparations. Moisturization of dry skin brings about a strengthening of the skin barrier, which means that foreign substances can penetrate less easily through the skin into the deeper skin layers. However, taurine applied to the skin penetrates […] into the lower skin layers.

Row | SMILES | interfacial tension towards water [1] [mN/m] | stability [2]
1 | CCCCCCCCCCCCCCCCCCOC(=O)CCCCCC [TEGOSOFT ® SH, Stearyl Heptanoate] | 28.7 | –
2 | CCCCCCCCCCCCCCCCCC(=O)OC(C)C [Isopropyl stearate, Isopropyl Stearate] | 21.9 | –
3 | CCCCCCCCCCCCCC(=O)OCC(CCCCCCCC)CCCCCCCCCC (stereo not shown) [MOD, Octyldodeceyl Myristate] | 22.1 | –
4 | CCCCCCCCOC(=O)CCCCCCCCCCCCCCC(C)C [PRISORINE ® 2036, Octyl Isostearate] | 29.7 | –
5 | NCCS(=O)(=O)O [Taurine, 2-aminoethanesulphonic acid] | – | very good stability
6 | CCCCCCCCCCCCCCCCCC(=O)OCCCCCCCC [CETIOL ® 868, Octyl Stearate] | 28.4 | –
7 | CCCCCCCC(=O)OCC(COC(=O)CCCCCCC)OC(=O)CCCCCCC [TRIVENT ® OCG, Tricaprylin] | 20.2 | –
